Experimental data: article PMC3969223, “Characterization of WZ4003 and HTH-01-015 as selective inhibitors of the LKB1-tumour-suppressor-activated NUAK kinases” (Biochemical Journal, 2013)

Columns and labels:
Experiment in all cases: Kinase profiling
Type in all cases: biochemical
Details in all cases: 0.1 or 1 μM inhibitor; mean of triplicate
[1] = biological target: HER4 (Homo sapiens, UniProt Q15303)
Summary of the method: (§1)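 In this specificity profiling, inhibitors at 0.1 or 1 μM were run against 140 protein kinases in vitro. Activity is reported relative to DMSO-treated controls as mean ±S.D. of three reactions.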

[2] = biological target: EPH-A4 (Homo sapiens, UniProt P54764)
Summary of the method: as §1

[3] = biological target: IR (Homo sapiens, UniProt P06213)
Summary of the method: as §1

[4] = biological target: S6K1 (Homo sapiens, UniProt P23443)
Summary of the method: as §1

[5] = biological target: SmMLCK (Homo sapiens, UniProt Q15746)
Summary of the method: as §1

[6] = biological target: CK1δ (Homo sapiens, UniProt P48730)
Summary of the method: as §1

[7] = biological target: Lck (Homo sapiens, UniProt P06239)
Summary of the method: as §1

[8] = biological target: PAK5 (Homo sapiens, UniProt Q9P286)
Summary of the method: as §1

[9] = biological target: PAK4 (Homo sapiens, UniProt O96013)
[10] = biological target: EPH-A2 (Homo sapiens, UniProt P29317)
Summary of the method: as §1

[11] = biological target: DYRK2 (Homo sapiens, UniProt Q92630)
Summary of the method: as §1

[12] = biological target: PKD1 (Homo sapiens, UniProt Q15139)
Summary of the method: as §1

[13] = biological target: JNK2 (Homo sapiens, UniProt P45984)
Summary of the method: as §1

[14] = biological target: PIM3 (Homo sapiens, UniProt Q86V86)
Summary of the method: as §1

[15] = biological target: BRSK2 (Homo sapiens, UniProt Q8IWQ3)
Summary of the method: as §1

[16] = biological target: CHK1 (Homo sapiens, UniProt O14757)
Summary of the method: as §1

[17] = biological target: p38δ MAPK (Homo sapiens, UniProt O15264)
Summary of the method: as §1

[18] = biological target: EF2K (Homo sapiens, UniProt O00418)
[19] = biological target: OSR1 (Homo sapiens, UniProt O95747)
Summary of the method: as §1

[20] = biological target: SGK1 (Homo sapiens, UniProt O00141)
Summary of the method: as §1

[21] = biological target: IKKβ (Homo sapiens, UniProt O14920)
Summary of the method: as §1

[22] = biological target: DYRK3 (Homo sapiens, UniProt O43781)
Summary of the method: as §1

[23] = biological target: DDR2 (Homo sapiens, UniProt Q16832)
Summary of the method: as §1

[24] = biological target: ERK5 (Homo sapiens, UniProt Q13164)
Summary of the method: as §1

[25] = biological target: ERK1 (Homo sapiens, UniProt P27361)
Summary of the method: as §1

[26] = biological target: MSK1 (Homo sapiens, UniProt O75582)
Summary of the method: as §1

[27] = biological target: IRAK1 (Homo sapiens, UniProt P51617)
Summary of the method: as §1

[28] = biological target: PLK1 (Homo sapiens, UniProt P53350)
[29] = biological target: TBK1 (Homo sapiens, UniProt Q9UHD2)
Summary of the method: as §1

[30] = biological target: PDGFRA (Homo sapiens, UniProt P16234)
Summary of the method: as §1

[31] = biological target: SRPK1 (Homo sapiens, UniProt Q96SB4)
Summary of the method: as §1

[32] = biological target: PKA (Homo sapiens, UniProt P17612)
Summary of the method: as §1

[33] = biological target: HIPK2 (Homo sapiens, UniProt Q9H2X6)
Summary of the method: as §1

[34] = biological target: STK33 (Homo sapiens, UniProt Q9BYT3)
Summary of the method: as §1

[35] = biological target: MARK2 (Homo sapiens, UniProt Q7KZI7)
Summary of the method: as §1

[36] = biological target: MNK2 (Homo sapiens, UniProt Q9HBH9)
Summary of the method: as §1

[37] = biological target: MLK3 (Homo sapiens, UniProt Q16584)
Summary of the method: as §1

[38] = biological target: TTBK2 (Homo sapiens, UniProt Q6IQ55)
Summary of the method: as §1

[39] = biological target: CAMK1 (Homo sapiens, UniProt Q14012)
Summary of the method: as §1

[40] = biological target: PKCα (Homo sapiens, UniProt P17252)
Summary of the method: as §1

[41] = biological target: RSK1 (Homo sapiens, UniProt Q15418)
Summary of the method: as §1

[42] = biological target: WNK1 (Homo sapiens, UniProt Q9H4A3)
Summary of the method: as §1

[43] = biological target: ULK2 (Homo sapiens, UniProt Q8IYT8)
Summary of the method: as §1

Sequence of IRAK1 (P51617 whole entry): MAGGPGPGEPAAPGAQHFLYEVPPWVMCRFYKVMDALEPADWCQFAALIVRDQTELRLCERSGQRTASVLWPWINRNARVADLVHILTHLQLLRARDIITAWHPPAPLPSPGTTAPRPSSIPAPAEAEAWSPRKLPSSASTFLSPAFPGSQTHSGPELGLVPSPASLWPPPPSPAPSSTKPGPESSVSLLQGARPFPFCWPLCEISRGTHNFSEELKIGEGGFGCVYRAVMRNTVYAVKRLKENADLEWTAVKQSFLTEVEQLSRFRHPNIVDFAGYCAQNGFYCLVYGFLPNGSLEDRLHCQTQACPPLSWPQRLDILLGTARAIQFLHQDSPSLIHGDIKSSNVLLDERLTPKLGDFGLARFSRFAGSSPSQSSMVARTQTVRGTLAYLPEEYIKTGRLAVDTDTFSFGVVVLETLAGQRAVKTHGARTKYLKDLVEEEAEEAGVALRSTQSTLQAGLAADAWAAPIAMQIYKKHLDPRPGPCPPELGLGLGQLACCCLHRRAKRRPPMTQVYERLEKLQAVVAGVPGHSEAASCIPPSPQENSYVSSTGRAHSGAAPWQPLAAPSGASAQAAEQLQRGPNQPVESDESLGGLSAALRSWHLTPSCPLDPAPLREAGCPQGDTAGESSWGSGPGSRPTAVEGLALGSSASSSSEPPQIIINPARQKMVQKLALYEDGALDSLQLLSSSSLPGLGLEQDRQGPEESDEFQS
Sequence of CHK1 (O14757 whole entry): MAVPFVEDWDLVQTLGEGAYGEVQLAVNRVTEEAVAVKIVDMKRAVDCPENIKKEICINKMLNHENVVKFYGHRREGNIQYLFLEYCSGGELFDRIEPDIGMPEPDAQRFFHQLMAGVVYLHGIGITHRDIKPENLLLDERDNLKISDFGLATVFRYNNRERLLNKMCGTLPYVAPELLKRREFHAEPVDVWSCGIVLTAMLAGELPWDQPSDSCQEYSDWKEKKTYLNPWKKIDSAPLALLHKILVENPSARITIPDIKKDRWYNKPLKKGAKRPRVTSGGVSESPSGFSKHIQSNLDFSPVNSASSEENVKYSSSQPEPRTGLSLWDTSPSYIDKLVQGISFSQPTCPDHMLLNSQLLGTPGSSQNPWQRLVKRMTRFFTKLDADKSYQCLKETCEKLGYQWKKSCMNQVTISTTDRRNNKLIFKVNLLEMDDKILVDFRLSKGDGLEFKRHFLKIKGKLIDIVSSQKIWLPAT
Sequence of DYRK3 (O43781 whole entry): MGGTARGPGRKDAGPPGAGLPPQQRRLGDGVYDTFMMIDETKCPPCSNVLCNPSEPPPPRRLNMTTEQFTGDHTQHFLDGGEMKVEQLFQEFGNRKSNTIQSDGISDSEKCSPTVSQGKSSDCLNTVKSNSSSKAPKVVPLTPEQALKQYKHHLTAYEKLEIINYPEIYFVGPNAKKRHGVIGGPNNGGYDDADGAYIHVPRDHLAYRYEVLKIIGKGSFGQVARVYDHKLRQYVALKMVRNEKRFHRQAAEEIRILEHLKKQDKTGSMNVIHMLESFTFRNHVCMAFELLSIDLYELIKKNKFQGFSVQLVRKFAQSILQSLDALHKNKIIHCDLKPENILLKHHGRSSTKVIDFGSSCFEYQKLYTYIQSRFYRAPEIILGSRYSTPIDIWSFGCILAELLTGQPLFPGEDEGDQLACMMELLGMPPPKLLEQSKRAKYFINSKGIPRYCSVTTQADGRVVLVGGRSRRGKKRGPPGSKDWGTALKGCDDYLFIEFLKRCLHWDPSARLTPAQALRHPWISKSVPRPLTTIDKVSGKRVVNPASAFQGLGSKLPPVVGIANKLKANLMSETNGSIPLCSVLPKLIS
Sequence of IR (P06213 28-1382): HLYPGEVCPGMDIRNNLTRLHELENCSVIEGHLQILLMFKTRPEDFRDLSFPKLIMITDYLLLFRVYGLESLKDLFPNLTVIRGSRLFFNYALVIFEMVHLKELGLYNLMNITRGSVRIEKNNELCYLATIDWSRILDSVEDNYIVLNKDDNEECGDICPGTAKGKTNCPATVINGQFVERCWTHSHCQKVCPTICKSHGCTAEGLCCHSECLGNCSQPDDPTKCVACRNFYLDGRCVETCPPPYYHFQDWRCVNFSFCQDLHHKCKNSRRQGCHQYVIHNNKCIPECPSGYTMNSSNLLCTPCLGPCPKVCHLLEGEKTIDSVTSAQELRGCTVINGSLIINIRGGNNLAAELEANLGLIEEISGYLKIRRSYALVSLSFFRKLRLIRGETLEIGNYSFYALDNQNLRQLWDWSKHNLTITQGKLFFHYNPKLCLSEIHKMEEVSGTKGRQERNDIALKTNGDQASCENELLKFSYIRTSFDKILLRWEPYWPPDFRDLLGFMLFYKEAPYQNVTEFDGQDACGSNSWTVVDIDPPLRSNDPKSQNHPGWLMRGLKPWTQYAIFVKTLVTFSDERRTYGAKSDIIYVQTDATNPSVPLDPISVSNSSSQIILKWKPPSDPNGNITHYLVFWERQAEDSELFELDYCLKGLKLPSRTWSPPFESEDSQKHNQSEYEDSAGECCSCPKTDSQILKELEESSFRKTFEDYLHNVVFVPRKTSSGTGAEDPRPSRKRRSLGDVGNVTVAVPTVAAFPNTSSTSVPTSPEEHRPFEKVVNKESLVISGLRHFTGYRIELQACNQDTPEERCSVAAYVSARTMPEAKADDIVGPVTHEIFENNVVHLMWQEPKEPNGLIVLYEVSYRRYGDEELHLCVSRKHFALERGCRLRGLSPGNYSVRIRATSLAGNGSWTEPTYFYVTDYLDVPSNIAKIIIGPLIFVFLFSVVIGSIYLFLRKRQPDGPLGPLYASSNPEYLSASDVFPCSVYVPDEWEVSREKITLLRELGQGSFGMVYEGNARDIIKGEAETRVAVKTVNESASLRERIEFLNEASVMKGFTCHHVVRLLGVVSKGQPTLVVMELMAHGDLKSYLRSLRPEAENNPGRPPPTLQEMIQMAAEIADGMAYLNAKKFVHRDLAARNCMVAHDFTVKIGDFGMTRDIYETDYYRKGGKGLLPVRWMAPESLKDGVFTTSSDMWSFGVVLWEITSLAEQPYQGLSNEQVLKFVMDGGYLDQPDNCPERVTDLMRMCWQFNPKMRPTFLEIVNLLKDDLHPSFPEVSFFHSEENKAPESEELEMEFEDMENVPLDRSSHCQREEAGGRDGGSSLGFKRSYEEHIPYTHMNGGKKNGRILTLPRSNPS
Sequence of SRPK1 (Q96SB4 whole entry): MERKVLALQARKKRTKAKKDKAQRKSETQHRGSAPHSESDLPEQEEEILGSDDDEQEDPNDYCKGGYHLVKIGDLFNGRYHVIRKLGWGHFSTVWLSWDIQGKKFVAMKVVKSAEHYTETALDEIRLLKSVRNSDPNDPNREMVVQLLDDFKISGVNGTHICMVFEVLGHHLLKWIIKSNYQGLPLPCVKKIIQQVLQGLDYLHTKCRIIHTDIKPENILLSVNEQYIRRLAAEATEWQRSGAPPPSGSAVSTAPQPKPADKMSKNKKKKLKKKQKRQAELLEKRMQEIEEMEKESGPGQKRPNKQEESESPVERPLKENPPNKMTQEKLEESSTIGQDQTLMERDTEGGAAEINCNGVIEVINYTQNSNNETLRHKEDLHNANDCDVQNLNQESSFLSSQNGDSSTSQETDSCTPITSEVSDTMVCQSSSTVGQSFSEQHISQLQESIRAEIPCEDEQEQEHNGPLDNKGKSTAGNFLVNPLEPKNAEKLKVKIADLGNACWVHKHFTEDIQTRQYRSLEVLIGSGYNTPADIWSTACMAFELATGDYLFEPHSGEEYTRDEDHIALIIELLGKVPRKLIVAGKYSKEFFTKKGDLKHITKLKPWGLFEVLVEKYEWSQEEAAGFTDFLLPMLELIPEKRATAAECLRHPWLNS
Sequence of MNK2 (Q9HBH9 whole entry): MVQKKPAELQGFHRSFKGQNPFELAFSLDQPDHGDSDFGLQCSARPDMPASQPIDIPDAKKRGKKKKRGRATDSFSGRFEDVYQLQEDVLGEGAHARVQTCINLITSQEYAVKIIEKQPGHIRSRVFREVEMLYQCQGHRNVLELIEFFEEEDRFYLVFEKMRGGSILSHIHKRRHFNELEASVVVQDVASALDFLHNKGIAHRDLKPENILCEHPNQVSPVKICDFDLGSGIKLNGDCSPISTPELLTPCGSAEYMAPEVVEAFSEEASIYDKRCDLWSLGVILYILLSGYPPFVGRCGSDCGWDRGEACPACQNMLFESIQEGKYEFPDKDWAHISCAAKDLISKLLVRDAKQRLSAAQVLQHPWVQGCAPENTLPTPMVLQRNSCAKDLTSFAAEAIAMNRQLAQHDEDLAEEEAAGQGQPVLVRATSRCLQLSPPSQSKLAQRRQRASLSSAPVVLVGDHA
Sequence of OSR1 (O95747 whole entry): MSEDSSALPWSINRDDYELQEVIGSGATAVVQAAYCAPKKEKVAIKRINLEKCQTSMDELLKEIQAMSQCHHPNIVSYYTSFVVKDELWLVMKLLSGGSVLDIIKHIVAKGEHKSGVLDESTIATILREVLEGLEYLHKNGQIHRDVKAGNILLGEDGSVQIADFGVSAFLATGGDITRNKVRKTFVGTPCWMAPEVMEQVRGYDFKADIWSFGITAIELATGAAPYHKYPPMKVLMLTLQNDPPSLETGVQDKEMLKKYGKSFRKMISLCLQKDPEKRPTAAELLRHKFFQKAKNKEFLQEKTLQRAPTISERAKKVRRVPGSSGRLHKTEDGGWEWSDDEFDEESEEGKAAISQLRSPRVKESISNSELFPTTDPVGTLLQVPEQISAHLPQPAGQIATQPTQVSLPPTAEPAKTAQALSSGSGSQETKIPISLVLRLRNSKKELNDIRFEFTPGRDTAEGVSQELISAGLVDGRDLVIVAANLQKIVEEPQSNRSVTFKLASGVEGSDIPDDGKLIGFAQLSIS

Compound: Cc1nc(Nc2cnn(C3CCNCC3)c2)nc2c1N(C)C(=O)c1cc3ccccc3cc1N2C [HTH-01-015]
- HER4 activity, percentage of DMSO control [1]: 102 percentage
- EPH-A4 activity, percentage of DMSO control [2]: 94 percentage
- IR activity, percentage of DMSO control [3]: 105 percentage
- S6K1 activity, percentage of DMSO control [4]: 85 percentage
- SmMLCK activity, percentage of DMSO control [5]: 77 percentage
- CK1δ activity, percentage of DMSO control [6]: 94 percentage
- Lck activity, percentage of DMSO control [7]: 90 percentage
- PAK5 activity, percentage of DMSO control [8]: 95 percentage
- PAK4 activity, percentage of DMSO control [9]: 110 percentage
- EPH-A2 activity, percentage of DMSO control [10]: 84 percentage
- DYRK2 activity, percentage of DMSO control [11]: 113 percentage
- PKD1 activity, percentage of DMSO control [12]: 94 percentage
- JNK2 activity, percentage of DMSO control [13]: 130 percentage
- PIM3 activity, percentage of DMSO control [14]: 97 percentage
- BRSK2 activity, percentage of DMSO control [15]: 97 percentage
- CHK1 activity, percentage of DMSO control [16]: 106 percentage
- p38δ MAPK activity, percentage of DMSO control [17]: 113 percentage
- EF2K activity, percentage of DMSO control [18]: 103 percentage
- OSR1 activity, percentage of DMSO control [19]: 107 percentage
- SGK1 activity, percentage of DMSO control [20]: 97 percentage
- IKKβ activity, percentage of DMSO control [21]: 81 percentage
- DYRK3 activity, percentage of DMSO control [22]: 98 percentage
- DDR2 activity, percentage of DMSO control [23]: 91 percentage
- ERK5 activity, percentage of DMSO control [24]: 121 percentage
- ERK1 activity, percentage of DMSO control [25]: 83 percentage
- MSK1 activity, percentage of DMSO control [26]: 111 percentage
- IRAK1 activity, percentage of DMSO control [27]: 103 percentage
- PLK1 activity, percentage of DMSO control [28]: 98 percentage
- TBK1 activity, percentage of DMSO control [29]: 112 percentage
- PDGFRA activity, percentage of DMSO control [30]: 109 percentage
- SRPK1 activity, percentage of DMSO control [31]: 103 percentage
- PKA activity, percentage of DMSO control [32]: 101 percentage
- HIPK2 activity, percentage of DMSO control [33]: 107 percentage
- STK33 activity, percentage of DMSO control [34]: 93 percentage
- MARK2 activity, percentage of DMSO control [35]: 99 percentage
- MNK2 activity, percentage of DMSO control [36]: 106 percentage
- MLK3 activity, percentage of DMSO control [37]: 94 percentage
- TTBK2 activity, percentage of DMSO control [38]: 102 percentage
- CAMK1 activity, percentage of DMSO control [39]: 92 percentage
- PKCα activity, percentage of DMSO control [40]: 117 percentage
- RSK1 activity, percentage of DMSO control [41]: 93 percentage
- WNK1 activity, percentage of DMSO control [42]: 99 percentage

Compound: CCC(=O)Nc1cccc(Oc2nc(Nc3ccc(N4CCN(C)CC4)cc3OC)ncc2Cl)c1 [WZ4003]
- ULK2 activity, percentage of DMSO control [43]: 37 percentage
